Results published in ChEMBL document CHEMBL5506008, “Synthesis and biological evaluation of 1-phenyl-tetrahydro-β-carboline-based first dual PRMT5/EGFR inhibitors as potential anticancer agents” (Eur J Med Chem, 2024).
Active and inactive are the calls of the source. The rule behind the calls is not given here.

Assays:
[1] = test system: A549; experiment: Antiproliferative activity against human A549 cells assessed as inhibition of cell growth by CCK-8 assay
[2] = test system: MCF7; experiment: Induction of apoptosis in human MCF7 cells assessed as dead cells at 3.75 uM measured after 48 hrs by Annexin V-FITC staining based flow cytometry analysis (reference value: 0.02%); assay type: functional
[3] = test system: MCF7; experiment: Induction of apoptosis in human MCF7 cells assessed as dead cells at 15 uM measured after 48 hrs by Annexin V-FITC staining based flow cytometry analysis (reference value: 0.02%); assay type: functional
[4] = molecular target: Receptor tyrosine-protein kinase erbB-4 (Homo sapiens, UniProt Q15303); experiment: Inhibition of wild type GST-tagged HER4 catalytic domain (unknown origin) expressed in insect cells using poly(Glu-Tyr) as substrate incubated for 6 mins by ELISA; parameters: species or system Insect cell
[5] = test system: MCF7; experiment: Induction of cell cycle arrest in human MCF7 cells assessed as accumulation of cells at G1 phase at 7.5 uM incubated for 48 hrs by PI/RNase staining based flow cytometry analysis (reference value: 48.01%); assay type: functional
[6] = test system: MCF7; experiment: Induction of apoptosis in human MCF7 cells assessed as live cells at 3.75 uM measured after 48 hrs by Annexin V-FITC staining based flow cytometry analysis (reference value: 99.26%); assay type: functional
[7] = Half life in male Sprague-Dawley rat at 2 mg/kg, iv administered via tail vein by LC-MS/MS analysis; assay type: ADME, organism-based; details: in vivo
[8] = test system: MCF7; experiment: Induction of cell cycle arrest in human MCF7 cells assessed as accumulation of cells at S phase at 3.75 uM incubated for 48 hrs by PI/RNase staining based flow cytometry analysis (reference value: 44.87%); assay type: functional
[9] = AUC (0 to 24 hrs) in male Sprague-Dawley rat at 10 mg/kg, po administered as single dose by LC-MS/MS analysis; assay type: ADME, organism-based; details: in vivo
[10] = Half life in male Sprague-Dawley rat at 10 mg/kg, po administered as single dose by LC-MS/MS analysis; assay type: ADME, organism-based; details: in vivo
[11] = Bioavailability in male Sprague-Dawley rat at 2 mg/kg, iv administered via tail vein by LC-MS/MS analysis; assay type: ADME, organism-based; details: in vivo
[12] = Cmax in male Sprague-Dawley rat at 10 mg/kg, po administered as single dose by LC-MS/MS analysis; assay type: ADME, organism-based; details: in vivo
[13] = Cmax in male Sprague-Dawley rat at 2 mg/kg, iv administered via tail vein by LC-MS/MS analysis; assay type: ADME, organism-based; details: in vivo
[14] = test system: MCF7; experiment: Antitumor activity against orthotopic human MCF7 cells xenografted in CB17SCID mouse assessed as inhibition of tumor growth at 10 to 20 mg/kg, po qd administered once daily for 21 days starting from 3 days post tumor inoculation and measured every day by calipers method; assay type: functional, organism-based; details: dose 10-20 mg/kg, time 21.0 day
[15] = molecular target: Protein arginine N-methyltransferase 1 (Homo sapiens, UniProt Q99873); experiment: Inhibition of PRMT1 (unknown origin) using [3H]SAM as substrate preincubated for 15 mins followed by substrate addition and measured after 60 mins by microbeta scintillation counting analysis
[16] = test system: MCF7; experiment: Induction of cell cycle arrest in human MCF7 cells assessed as accumulation of cells at G1 phase at 3.75 uM incubated for 48 hrs by PI/RNase staining based flow cytometry analysis (reference value: 48.01%); assay type: functional
[17] = test system: MCF7; experiment: Induction of apoptosis in human MCF7 cells assessed as late apoptotic cells at 3.75 uM measured after 48 hrs by Annexin V-FITC staining based flow cytometry analysis (reference value: 0.14%); assay type: functional
[18] = test system: MCF7; experiment: Induction of apoptosis in human MCF7 cells assessed as early apoptotic cells at 7.5 uM measured after 48 hrs by Annexin V-FITC staining based flow cytometry analysis (reference value: 0.58%); assay type: functional
[19] = test system: MCF7; experiment: Induction of cell cycle arrest in human MCF7 cells assessed as accumulation of cells at G2 phase at 7.5 uM incubated for 48 hrs by PI/Rnase staining based flow cytometry analysis (reference value: […]%); assay type: functional
[20] = test system: MCF7; experiment: Induction of apoptosis in human MCF7 cells assessed as live cells at 15 uM measured after 48 hrs by Annexin V-FITC staining based flow cytometry analysis (reference value: 99.26%); assay type: functional
[21] = Clearance in male Sprague-Dawley rat at 2 mg/kg, iv administered via tail vein by LC-MS/MS analysis; assay type: ADME, organism-based; details: in vivo
[22] = Oral bioavailability in male Sprague-Dawley rat at 10 mg/kg administered as single dose by LC-MS/MS analysis; assay type: ADME, organism-based; details: in vivo
[23] = AUC (0 to infinity) in male Sprague-Dawley rat at 2 mg/kg, iv administered via tail vein by LC-MS/MS analysis; assay type: ADME, organism-based; details: in vivo
[24] = molecular target: T1, Protein arginine N-methyltransferase 5 (Homo sapiens, UniProt O14744); experiment: Inhibition of PRMT5 (unknown origin) by radiometric-based scintillation proximity assay
[25] = test system: MCF7; experiment: Antiproliferative activity against human MCF7 cells assessed as inhibition of cell growth by CCK-8 assay
[26] = test system: MCF7; experiment: Induction of apoptosis in human MCF7 cells assessed as early apoptotic cells at 15 uM measured after 48 hrs by Annexin V-FITC staining based flow cytometry analysis (reference value: 0.58%); assay type: functional
[27] = Metabolic stability in rat liver microsomes assessed as compound remaining at […] measured after 30 mins in presence of NADPH by LC-MS/MS analysis; assay type: ADME, Microsome; details: read-out: Stability
[28] = AUC (0 to 24 hrs) in male Sprague-Dawley rat at 2 mg/kg, iv administered via tail vein by LC-MS/MS analysis; assay type: ADME, organism-based; details: in vivo
[29] = test system: MCF7; experiment: Induction of cell cycle arrest in human MCF7 cells assessed as accumulation of cells at G2 phase at 3.75 uM incubated for 48 hrs by PI/Rnase staining based flow cytometry analysis (reference value: […]%); assay type: functional
[30] = molecular target: T1, Protein arginine N-methyltransferase 5; experiment: Inhibition of PRMT5 in human MCF7 cells using SmD3 as substrate assessed as reduction in symmetric arginine dimethylation by measuring reduction in SmD3me2 level incubated for 72 hrs by Western blot analysis; assay type: cell-based; details: dose 3.75-15 µM
[31] = Volume of distribution in male Sprague-Dawley rat at 10 mg/kg, po administered as single dose by LC-MS/MS analysis; assay type: ADME, organism-based; details: in vivo
[32] = test system: MCF7; experiment: Induction of apoptosis in human MCF7 cells assessed as late apoptotic cells at 15 uM measured after 48 hrs by Annexin V-FITC staining based flow cytometry analysis (reference value: 0.14%); assay type: functional
[33] = AUC (0 to infinity) in male Sprague-Dawley rat at 10 mg/kg, po administered as single dose by LC-MS/MS analysis; assay type: ADME, organism-based; details: in vivo
[34] = Volume of distribution in male Sprague-Dawley rat at 2 mg/kg, iv administered via tail vein by LC-MS/MS analysis; assay type: ADME, organism-based; details: in vivo
[35] = Tmax in male Sprague-Dawley rat at 10 mg/kg, po administered as single dose by LC-MS/MS analysis; assay type: ADME, organism-based; details: in vivo
[36] = test system: HepG2; experiment: Antiproliferative activity against human HepG2 cells assessed as inhibition of cell growth by CCK-8 assay
[37] = Metabolic stability in human liver microsomes assessed as compound remaining at […] measured after 30 mins in presence of NADPH by LC-MS/MS analysis; assay type: ADME, Microsome; details: read-out: Stability
[38] = test system: MCF7; experiment: Induction of apoptosis in human MCF7 cells assessed as live cells at 7.5 uM measured after 48 hrs by Annexin V-FITC staining based flow cytometry analysis (reference value: 99.26%); assay type: functional
[39] = test system: MCF7; experiment: Induction of cell cycle arrest in human MCF7 cells assessed as accumulation of cells at S phase at 7.5 uM incubated for 48 hrs by PI/RNase staining based flow cytometry analysis (reference value: 44.87%); assay type: functional
[40] = test system: HeLa; experiment: Antiproliferative activity against human HeLa cells assessed as inhibition of cell growth by CCK-8 assay
[41] = Clearance in male Sprague-Dawley rat at 10 mg/kg, po administered as single dose by LC-MS/MS analysis; assay type: ADME, organism-based; details: in vivo
[42] = test system: MCF7; experiment: Induction of apoptosis in human MCF7 cells assessed as dead cells at 7.5 uM measured after 48 hrs by Annexin V-FITC staining based flow cytometry analysis (reference value: 0.02%); assay type: functional
[43] = test system: MCF7; experiment: Induction of apoptosis in human MCF7 cells assessed as early apoptotic cells at 3.75 uM measured after 48 hrs by Annexin V-FITC staining based flow cytometry analysis (reference value: 0.58%); assay type: functional
[44] = test system: MCF7; experiment: Induction of apoptosis in human MCF7 cells assessed as late apoptotic cells at 7.5 uM measured after 48 hrs by Annexin V-FITC staining based flow cytometry analysis (reference value: 0.14%); assay type: functional
[45] = test system: MDA-MB-231; experiment: Antiproliferative activity against human MDA-MB-231 cells assessed as inhibition of cell growth by CCK-8 assay

T1 sequence (O14744 whole entry): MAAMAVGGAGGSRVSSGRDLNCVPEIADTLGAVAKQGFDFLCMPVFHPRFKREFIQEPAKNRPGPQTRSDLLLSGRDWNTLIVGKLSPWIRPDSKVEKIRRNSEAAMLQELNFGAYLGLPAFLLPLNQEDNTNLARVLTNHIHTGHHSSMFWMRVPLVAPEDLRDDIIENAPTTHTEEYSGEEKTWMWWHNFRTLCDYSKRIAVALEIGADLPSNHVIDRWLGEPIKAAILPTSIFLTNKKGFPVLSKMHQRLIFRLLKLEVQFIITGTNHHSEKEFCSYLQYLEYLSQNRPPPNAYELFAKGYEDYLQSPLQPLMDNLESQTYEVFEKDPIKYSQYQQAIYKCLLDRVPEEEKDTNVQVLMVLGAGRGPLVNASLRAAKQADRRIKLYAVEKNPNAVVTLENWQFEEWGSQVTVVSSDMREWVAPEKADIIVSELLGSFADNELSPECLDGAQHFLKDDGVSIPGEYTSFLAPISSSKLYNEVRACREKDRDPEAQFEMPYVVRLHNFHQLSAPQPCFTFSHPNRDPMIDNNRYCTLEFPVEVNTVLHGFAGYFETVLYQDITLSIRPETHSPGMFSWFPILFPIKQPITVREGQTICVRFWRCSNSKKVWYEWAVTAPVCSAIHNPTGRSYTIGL
Receptor tyrosine-protein kinase erbB-4, sequence (Q15303 whole entry, the tested form may be a part): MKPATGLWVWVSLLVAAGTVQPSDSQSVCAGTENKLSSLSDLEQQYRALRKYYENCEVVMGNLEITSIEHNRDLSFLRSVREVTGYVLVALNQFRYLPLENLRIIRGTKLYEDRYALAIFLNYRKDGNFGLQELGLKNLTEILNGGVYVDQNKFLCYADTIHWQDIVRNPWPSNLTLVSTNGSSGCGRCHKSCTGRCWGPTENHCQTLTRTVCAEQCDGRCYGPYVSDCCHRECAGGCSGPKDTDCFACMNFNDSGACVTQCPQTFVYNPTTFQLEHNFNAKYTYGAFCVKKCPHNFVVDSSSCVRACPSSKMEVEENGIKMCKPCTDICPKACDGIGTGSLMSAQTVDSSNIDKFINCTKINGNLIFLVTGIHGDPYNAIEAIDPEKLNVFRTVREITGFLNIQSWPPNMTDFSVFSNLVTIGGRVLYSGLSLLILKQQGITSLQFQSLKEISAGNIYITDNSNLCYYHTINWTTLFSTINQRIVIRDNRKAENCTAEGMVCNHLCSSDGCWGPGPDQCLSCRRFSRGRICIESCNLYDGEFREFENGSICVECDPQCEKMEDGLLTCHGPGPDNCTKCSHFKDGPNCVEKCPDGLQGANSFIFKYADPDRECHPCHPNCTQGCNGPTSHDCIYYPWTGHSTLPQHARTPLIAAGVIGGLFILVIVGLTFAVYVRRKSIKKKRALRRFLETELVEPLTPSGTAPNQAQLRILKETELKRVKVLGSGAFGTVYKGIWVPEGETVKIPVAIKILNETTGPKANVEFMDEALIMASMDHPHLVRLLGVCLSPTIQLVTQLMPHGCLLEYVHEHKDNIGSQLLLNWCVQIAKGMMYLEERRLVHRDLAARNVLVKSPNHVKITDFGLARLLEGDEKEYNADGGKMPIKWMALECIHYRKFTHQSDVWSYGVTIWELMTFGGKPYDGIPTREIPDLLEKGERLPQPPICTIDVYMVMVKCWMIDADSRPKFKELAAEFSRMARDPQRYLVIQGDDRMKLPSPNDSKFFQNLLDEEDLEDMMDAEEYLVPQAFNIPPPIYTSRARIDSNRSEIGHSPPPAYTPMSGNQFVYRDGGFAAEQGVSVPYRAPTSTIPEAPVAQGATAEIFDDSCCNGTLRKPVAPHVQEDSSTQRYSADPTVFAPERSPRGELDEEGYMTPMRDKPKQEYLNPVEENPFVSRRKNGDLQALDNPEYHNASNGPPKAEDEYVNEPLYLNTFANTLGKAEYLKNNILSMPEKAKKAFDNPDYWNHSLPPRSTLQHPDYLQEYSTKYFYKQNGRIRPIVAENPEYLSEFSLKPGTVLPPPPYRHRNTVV
Protein arginine N-methyltransferase 1, sequence (Q99873 whole entry): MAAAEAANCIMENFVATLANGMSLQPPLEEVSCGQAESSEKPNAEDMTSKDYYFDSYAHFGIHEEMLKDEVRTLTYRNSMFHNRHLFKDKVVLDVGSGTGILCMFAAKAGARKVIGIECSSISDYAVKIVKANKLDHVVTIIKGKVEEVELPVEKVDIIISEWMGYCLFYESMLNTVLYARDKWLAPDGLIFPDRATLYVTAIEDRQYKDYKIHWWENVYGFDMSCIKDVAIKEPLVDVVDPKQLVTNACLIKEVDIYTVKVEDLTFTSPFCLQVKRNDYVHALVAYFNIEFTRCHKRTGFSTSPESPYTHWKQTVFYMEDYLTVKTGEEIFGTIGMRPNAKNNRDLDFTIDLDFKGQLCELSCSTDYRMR

Structure (SMILES): COc1cc(C2NCCc3c2[nH]c2ccccc32)ccc1OCc1cc(C(F)(F)F)cc(C(F)(F)F)c1 (stereo not given)
- IC50 [1]: 9.76 µM
- Activity [2]: 0.02%
- Activity [3]: 0.01%
- IC50 [4]: 86.5 µM
- Activity [5]: 62.98%
- Activity [6]: 98.07%
- half-life [7]: 4.9 h
- Activity [8]: 40.55%
- AUC(0-t) [9]: 1960 ng·h/mL
- half-life [10]: 5.7 h
- F [11]: 100%
- Cmax [12]: 167 ng/mL
- Cmax [13]: 187 ng/mL
- Activity [14]: Active
- IC50 [15]: > 100 µM
- Activity [16]: 54.85%
- Activity [17]: 0.4%
- Activity [18]: 2.32%
- Activity [19]: 0.26%
- Activity [20]: 96.45%
- clearance [21]: 25 mL/min/kg
- bioavailability [22]: 30.6%
- AUC(0-inf) [23]: 1330 ng·h/mL
- IC50 [24]: 15.5 µM
- IC50 [25]: 5.74 µM
- Activity [26]: 3.07%
- remaining at 0.5 h [27]: 80.3%
- AUC(0-t) [28]: 1280 ng·h/mL
- Activity [29]: 4.25%
- inhibition [30]: Dose-Dependent Effect
- Vd [31]: 38.5 L/kg
- Activity [32]: 0.48%
- AUC(0-inf) [33]: 2110 ng·h/mL
- Vd [34]: 10.8 L/kg
- Tmax [35]: 2 h
- IC50 [36]: 25.4 µM
- remaining at 0.5 h [37]: 85.9%
- Activity [38]: 97.31%
- Activity [39]: 36.77%
- IC50 [40]: 7.99 µM
- CL/F [41]: 78.3 mL/min/kg
- Activity [42]: 0%
- Activity [43]: 1.51%
- Activity [44]: 0.37%
- IC50 [45]: 6.55 µM
